# Data reported in PubChem BioAssay AID292 (DTP/NCI, 2004).
# “And” between values parts separate entries of the source, which are not always exact repeats. Equal values may be shown once. Toxic doses and inconclusive results are not listed.
# Tested on: B6C3F1 mice, ip Sarcoma M5076, median survival T/C
# Test: NCI In Vivo Anticancer Drug Screen. Data for tumor model Sarcoma M5076 (intraperitoneal) in B6C3F1 mice
# Settings: endpoint: median survival time, higher = longer survival
# In short: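 Antitumour effect is judged in tumour-bearing mice by comparing survival after compound dosing against vehicle-only animals, reported as T/C.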
# [1] = dose: 12.5 mg/kg/injection, schedule: Q04DX004 (ip), vehicle: saline with Tween-80
# [2] = dose: 25.0 mg/kg/injection, schedule: Q04DX004 (ip), vehicle: saline with Tween-80
# [3] = dose: 50.0 mg/kg/injection, schedule: Q04DX004 (ip), vehicle: saline with Tween-80
# [4] = dose: 37.5 mg/kg/injection, schedule: Q04DX004 (ip), vehicle: saline with Tween-80
# [5] = dose: 300.0 mg/kg/injection, schedule: Q04DX004 (ip), vehicle: saline with Tween-80
# [6] = dose: 25.0 mg/kg/injection, schedule: Q04DX004 (ip), vehicle: Klucel (hydroxypropylcellulose) (HPC)
# [7] = dose: 50.0 mg/kg/injection, schedule: Q04DX004 (ip), vehicle: Klucel (hydroxypropylcellulose) (HPC)
# [8] = dose: 100.0 mg/kg/injection, schedule: Q04DX004 (ip), vehicle: Klucel (hydroxypropylcellulose) (HPC)
# [9] = dose: 200.0 mg/kg/injection, schedule: Q04DX004 (ip), vehicle: Klucel (hydroxypropylcellulose) (HPC)
# [10] = dose: 75.0 mg/kg/injection, schedule: Q04DX004 (ip), vehicle: saline with Tween-80
# [11] = dose: 150.0 mg/kg/injection, schedule: Q04DX004 (ip), vehicle: saline with Tween-80
# [12] = dose: 25.0 mg/kg/injection, schedule: Q04DX004 (ip), vehicle: saline
# [13] = dose: 50.0 mg/kg/injection, schedule: Q04DX004 (ip), vehicle: saline
# [14] = dose: 100.0 mg/kg/injection, schedule: Q04DX004 (ip), vehicle: saline
# [15] = dose: 200.0 mg/kg/injection, schedule: Q04DX004 (ip), vehicle: saline
# [16] = dose: 100.0 mg/kg/injection, schedule: Q04DX004 (ip), vehicle: saline with Tween-80
smiles,measurement,setting,value
C[n+]1c2cc(N)ccc2cc2ccc(N)cc21,T/C,"dose: 1.5 mg/kg/injection, schedule: Q04DX004 (ip), vehicle: saline",101 % of control
same,T/C,"dose: 3.0 mg/kg/injection, schedule: Q04DX004 (ip), vehicle: saline",94 % of control
same,T/C,"dose: 6.0 mg/kg/injection, schedule: Q04DX004 (ip), vehicle: saline",106 % of control and 118 % of control and 120 % of control
same,T/C,"dose: 12.0 mg/kg/injection, schedule: Q04DX004 (ip), vehicle: saline",116 % of control and 123 % of control
same,T/C,"dose: 24.0 mg/kg/injection, schedule: Q04DX004 (ip), vehicle: saline",112 % of control
C=C(C)C1C2CC3(C)C4(CO4)C4OC4C3(O)C1C(=O)O2 (stereo unspecified),T/C,"dose: 0.25 mg/kg/injection, schedule: Q04DX004 (ip), vehicle: Klucel (hydroxypropylcellulose) (HPC)",96 % of control
same,T/C,"dose: 0.5 mg/kg/injection, schedule: Q04DX004 (ip), vehicle: Klucel (hydroxypropylcellulose) (HPC)",112 % of control
same,T/C,"dose: 1.0 mg/kg/injection, schedule: Q04DX004 (ip), vehicle: Klucel (hydroxypropylcellulose) (HPC)",100 % of control
O=C1C=CC(=CC=C2C=CN(CCCCCCCCCCCO)C=C2)C=C1,T/C,"dose: 6.25 mg/kg/injection, schedule: Q04DX004 (ip), vehicle: saline with Tween-80",102 % of control
same,T/C,[1],109 % of control
same,T/C,[2],102 % of control
same,T/C,[3],111 % of control
S=c1sc(-c2ccc(Cl)cc2)nn1CSc1nc2ccccc2o1,T/C,[4],86 % of control
same,T/C,[5],94 % of control
Cc1ccc(N=NN(C)C)cc1NC(=O)NCC(=O)OC(C)(C)C,T/C,"dose: 16.25 mg/kg/injection, schedule: Q04DX004 (ip), vehicle: saline with Tween-80",103 % of control
same,T/C,"dose: 32.5 mg/kg/injection, schedule: Q04DX004 (ip), vehicle: saline with Tween-80",98 % of control
same,T/C,"dose: 65.0 mg/kg/injection, schedule: Q04DX004 (ip), vehicle: saline with Tween-80",111 % of control
same,T/C,"dose: 130.0 mg/kg/injection, schedule: Q04DX004 (ip), vehicle: saline with Tween-80",108 % of control
same,T/C,"dose: 260.0 mg/kg/injection, schedule: Q04DX004 (ip), vehicle: saline with Tween-80",118 % of control
O=C1CN(CO)C(=O)N1CO,T/C,[6],100 % of control
same,T/C,[7],104 % of control
same,T/C,[8],97 % of control
same,T/C,[9],114 % of control
same,T/C,"dose: 400.0 mg/kg/injection, schedule: Q04DX004 (ip), vehicle: Klucel (hydroxypropylcellulose) (HPC)",114 % of control
COc1ccc(-n2c(CSc3ccc(Cl)cc3)n[nH]c2=S)cc1,T/C,[4],96 % of control
same,T/C,[10],101 % of control
same,T/C,[11],96 % of control
same,T/C,[5],87 % of control
Nc1ccn([C@@H](C=O)C[C@@H](C=O)CO)c(=O)n1,T/C,[12],99 % of control
same,T/C,[13],99 % of control
same,T/C,[14],103 % of control
same,T/C,[15],108 % of control
same,T/C,"dose: 400.0 mg/kg/injection, schedule: Q04DX004 (ip), vehicle: saline",118 % of control
CCCC1CCC(=C2C(=O)CCC2=O)O1 (stereo unspecified),T/C,[2],101 % of control
same,T/C,[3],95 % of control
same,T/C,[16],96 % of control
COc1ccc(NC(=O)C2C(=O)C(=O)N(c3ccc(OC)cc3OC)C2=O)c(OC)c1 (stereo unspecified),T/C,[7],100 % of control
same,T/C,[8],100 % of control
same,T/C,[9],97 % of control
CC1=CC(C)(C)Nc2ccc(OC(=O)/C=C(C)/C=C/C=C(C)/C=C/C3=C(C)CCCC3(C)C)cc21,T/C,[4],96 % of control
same,T/C,[10],98 % of control
same,T/C,[11],98 % of control
same,T/C,[5],89 % of control
same,T/C,"dose: 600.0 mg/kg/injection, schedule: Q04DX004 (ip), vehicle: saline with Tween-80",89 % of control
COc1ccc(C=C(C(=O)CCN(C)C)C(=O)CCN(C)C)cc1,T/C,[12],99 % of control
same,T/C,[13],101 % of control
same,T/C,[14],102 % of control
same,T/C,[15],102 % of control
CCN(CC)c1ccc2[nH]c3c(C(N)=O)cc(=O)c(=O)c=3oc2c1,T/C,[2],105 % of control
same,T/C,[3],108 % of control
same,T/C,[16],106 % of control
same,T/C,"dose: 200.0 mg/kg/injection, schedule: Q04DX004 (ip), vehicle: saline with Tween-80",96 % of control
CC(=O)OCCN1CCOC(O)(c2cccc(C(F)(F)F)c2)C1 (stereo unspecified),T/C,"dose: 11.25 mg/kg/injection, schedule: Q04DX004 (ip), vehicle: saline with Tween-80",97 % of control
same,T/C,"dose: 22.5 mg/kg/injection, schedule: Q04DX004 (ip), vehicle: saline with Tween-80",96 % of control
same,T/C,"dose: 45.0 mg/kg/injection, schedule: Q04DX004 (ip), vehicle: saline with Tween-80",97 % of control
same,T/C,"dose: 90.0 mg/kg/injection, schedule: Q04DX004 (ip), vehicle: saline with Tween-80",100 % of control
same,T/C,"dose: 180.0 mg/kg/injection, schedule: Q04DX004 (ip), vehicle: saline with Tween-80",98 % of control
CC(=O)/C(=C\c1ccc(/C=C(\C(C)=O)C(=O)CCN(C)C)cc1)C(=O)CCN(C)C,T/C,"dose: 400.0 mg/kg/injection, schedule: Q04DX004 (ip), vehicle: saline with Tween-80",92 % of control
COc1cc2cc(c1Cl)N(C)C(=O)C[C@H](OC(=O)[C@H](C)N(C)C(C)=O)[C@]1(C)O[C@H]1[C@H](C)[C@@H]1C[C@@](O)(NC(=O)O1)[C@H](OC)C=C/C=C(\C)C2,T/C,"dose: 18.75 micrograms/kg/injection, schedule: Q04DX004 (ip), vehicle: saline",101 % of control
same,T/C,"dose: 37.5 micrograms/kg/injection, schedule: Q04DX004 (ip), vehicle: saline",103 % of control and 119 % of control
same,T/C,"dose: 37.5 micrograms/kg/injection, schedule: Q04DX005 (ip), vehicle: saline",108 % of control and 217 % of control
same,T/C,"dose: 75.0 micrograms/kg/injection, schedule: Q04DX004 (ip), vehicle: saline",112 % of control
same,T/C,"dose: 75.0 micrograms/kg/injection, schedule: Q04DX005 (ip), vehicle: saline",119 % of control
same,T/C,"dose: 150.0 micrograms/kg/injection, schedule: Q04DX004 (ip), vehicle: saline",114 % of control
same,T/C,"dose: 300.0 micrograms/kg/injection, schedule: Q04DX004 (ip), vehicle: saline",114 % of control
Cc1c2c(ccc3ccccc32)c[n+]2ccccc12,T/C,"dose: 1.5 mg/kg/injection, schedule: Q04DX004 (ip), vehicle: saline with Tween-80",97 % of control and 104 % of control and 109 % of control
same,T/C,"dose: 3.0 mg/kg/injection, schedule: Q04DX004 (ip), vehicle: saline with Tween-80",92 % of control and 97 % of control and 104 % of control
same,T/C,"dose: 6.0 mg/kg/injection, schedule: Q04DX004 (ip), vehicle: saline with Tween-80",92 % of control and 107 % of control and 115 % of control
same,T/C,"dose: 12.0 mg/kg/injection, schedule: Q04DX004 (ip), vehicle: saline with Tween-80",92 % of control
[NH-]C(CCC(N)=O)C(=O)O.[NH-]C(CCC(N)=O)C(=O)O.[Zn+2] (stereo unspecified),T/C,[1],103 % of control
same,T/C,[2],98 % of control
same,T/C,[3],96 % of control
CCn1c(-c2ccc(OC(C)=O)cc2)c(C)c2cc(OC(C)=O)ccc21,T/C,[6],102 % of control
same,T/C,[7],107 % of control
same,T/C,[8],87 % of control
same,T/C,[9],90 % of control
CN1C2CCC1C(Br)C(=O)C2 (stereo unspecified),T/C,[13],101 % of control
same,T/C,[14],104 % of control
same,T/C,[15],103 % of control
[N-]=[N+]=NCc1cnnn1C1OC(CO)C(O)C1O (stereo unspecified),T/C,"dose: 37.5 mg/kg/injection, schedule: Q04DX004 (ip), vehicle: saline",104 % of control
same,T/C,"dose: 75.0 mg/kg/injection, schedule: Q04DX004 (ip), vehicle: saline",103 % of control
same,T/C,"dose: 150.0 mg/kg/injection, schedule: Q04DX004 (ip), vehicle: saline",104 % of control
same,T/C,"dose: 300.0 mg/kg/injection, schedule: Q04DX004 (ip), vehicle: saline",107 % of control
same,T/C,"dose: 600.0 mg/kg/injection, schedule: Q04DX004 (ip), vehicle: saline",103 % of control
CCc1nc(N)nc(N)c1-c1ccc(Cl)c(N=[N+]=[N-])c1,T/C,"dose: 8.37 mg/kg/injection, schedule: Q04DX004 (ip), vehicle: water",107 % of control
same,T/C,"dose: 16.75 mg/kg/injection, schedule: Q04DX004 (ip), vehicle: water",108 % of control
same,T/C,"dose: 33.5 mg/kg/injection, schedule: Q04DX004 (ip), vehicle: distilled water + Tween-80",102 % of control
same,T/C,"dose: 33.5 mg/kg/injection, schedule: Q04DX004 (ip), vehicle: water",119 % of control
same,T/C,"dose: 67.0 mg/kg/injection, schedule: Q04DX004 (ip), vehicle: distilled water + Tween-80",109 % of control
same,T/C,"dose: 134.0 mg/kg/injection, schedule: Q04DX004 (ip), vehicle: distilled water + Tween-80",102 % of control
same,T/C,"dose: 536.0 mg/kg/injection, schedule: Q04DX004 (ip), vehicle: distilled water + Tween-80",174 % of control
